Experiments:
FGF2 = molecular target: T1, FGF2 (Homo sapiens, UniProt P09038); experiment: Thermal shift assay (TSA) of FGFR1/FGF2 complex, FGF2 melting peak; type: binding
T1 construct: made in house; host or cells: Escherichia coli BL21 (DE3) Star
Text: (§1) TSA was utilized to biophysically characterize the recombinant human FGFR1/FGF2 complex in the presence or absence of compounds. The assay functions by protein denaturation over a temperature gradient. During protein unfolding, exposed hydrophobic regions bind a dye and fluoresce due to solvent relaxation effects. Changes in the melting temperature of the protein complex in the presence of each compound were monitored and compounds were screened/ranked using this method.
One Shot BL21 (DE3) Star Escherichia coli competent cells (Thermo Fisher) were transformed with a relevant FGF2 plasmid and inoculated onto Ampicillin Luria Broth/Agar plates. Two hundred milliliter portions of Terrific Broth starter cultures were used to inoculate 9 L cultures with ampicillin at a concentration of 100 μg/mL. Cultures were grown to an O.D.600 near 1.0 at 37° C., and induced with IPTG overnight at 18° C. The cells were harvested at 7000 RPM in rotor 6000 for 5 min at 4° C. and stored at −80° C. Bacterial pellets were resuspended in 25 mM Hepes-NaOH, pH 7.5, 250 mM NaCl, and the cells were lysed in 3 cycles on/off for 3 minutes each at 4° C. via sonication. After centrifugation for 30 minutes at 16,000 RPM at 4° C., the isolated pellets were discarded, and the supernatant was filtered supernatant through a […] PES filter using 100 mL superloop. The lysate was purified over a 5 mL S column by washing the column with Lysis buffer for 5 CV then eluting using gradient from 250 mM to 1 M NaCl over 20 CV. The fractions containing FGF2 were identified via SDS-PAGE gel (Expected Mw: 15.2 KDa). The protein was collected and diluted in 20 mM Tris-HCl pH 8.0, 25 mM MgCl2 buffer in order to reach a NaCl concentration of 150 mM. The purified FGF2 was concentrated and stored at −80° C.
(§2) Thawed aliquots of purified FGF2 (1.0 mg/mL) and FGFR1 (1.6 mg/mL) proteins were mixed in a 1:1 molar ratio (64 μM: 64 μM) on ice for 30 min at 4° C. and plated prior to the thermal shift assay (TSA). Complex formation was verified by loading the complexed material on a size exclusion column (superdex 300GL S200) and observing the monodisperse peak corresponding to the FGF2/FGFR1 complex (˜40 kDa). Compounds of the invention were screened in dose response format (0-100 μM) with the FGF2/FGFR1 complex in triplicates. FGF2/FGFR1/compound complexes were mixed in a 1000:1 ratio with Sypro Orange dye (Sigma-Aldrich). The samples were processed using a Bio-Rad CFX C96 Touch quantitative polymerase chain reaction and run using the FRET assay settings with a heating ramp of 0.3° C./s cycling from 4 to 100° C. Data analysis was performed using the Bio-Rad CFX Manager Software (version 3.1, Bio-Rad) and changes in the melting temperature (Tm) of the complex in the presence of each compound were monitored. The results are shown in Tables 2 and 3 below and also in FIG. 1 (for Compound 2).

FGFR1 = FGFR1 (Homo sapiens, UniProt P11362); experiment: Thermal shift assay (TSA) of FGFR1/FGF2 complex, FGFR1 melting peak; type: binding; set-up: made in house; host or cells: Escherichia coli BL21 (DE3) Star
Text: as §1
Cell pellets were thawed and resuspend in 100 mL of FGFR1 Lysis Buffer per 9 g of pellet (20 mM Tris-HCl pH 8.0, 500 mM NaCl, 1 mM dithiothreitol) by stirring at 4° C. for 1 hour. Cells were lysed in 3 cycles on/off for 3 minutes each at 4° C. via sonication followed by centrifugation for 30 minutes at 16,000 RPM in rotor F20 at 4° C., after which the supernatant was discarded. This process was then repeated twice. The pellets were resuspended in 150 mL FGFR1 solubilization buffer (8 M urea, 20 mM Tris-HCL pH 8.0, 150 mM NaCl, 1 mM dithiothreitol) by stirring for 1 hour at 4° C., and the solution was subjected to centrifugation for 30 minutes at 16,000 RPM in rotor F20 at 4° C. The pellets were discarded, and the supernatant was filtered through a […] polyethersylfone (PES) filter. After filtration, the supernatant was added dropwise to 1 L FGFR1 refolding buffer (20 mM Tris-HCl pH 8.0, 150 mM NaCl, 0.5 M L-arginine, 25 mM MgCl2) using a glass column. Protein was concentrated by tangential flow from 1 L to 100 mL and dialyzed against 1 L of FGFR1 Dialysis Buffer (20 mM Tris-HCl pH 8.0, 150 mM NaCl, 25 mM MgCl2) for 2 hours at 4° C., and the dialysis step was repeated with fresh buffer for an additional 2 hours at 4° C. The material thus obtained was then centrifuged at 4000 RPM in Eppendorf tabletop centrifuge for 5 minutes and loaded onto 2×5 mL heparin columns. The columns were washed extensively (20 CV) using FGFR1 Heparin Buffer A (20 mM Tris-HCl pH 8.0, 150 mM NaCl, 25 mM MgCl2) and then eluted using FGFR1 Heparin Buffer B (20 mM Tris-HCl pH 8.0, 1.5 M NaCl, 25 mM MgCl2). A large peak was recovered that was >95% pure by SDS-PAGE analysis gel (Expected Mw: 25 KDa). The protein was collected and diluted in 20 mM Tris-HCl pH 8.0, 25 mM MgCl2 buffer in order to reach a NaCl concentration of 150 mM. The FGFR1 thus obtained was concentrated and stored at −80° C.
as §2

[1] = Body weight pre- and post-MCAO; type: in vivo; settings: rat MCAO; 10 mg/kg i.v. on Day 1, 2 and 3 after MCAO
Experimental: The rats were randomly assigned into two groups of ten each. Each group was injected intravenously (i.v.) with 2 ml/kg Compound 2 at 10 mg/kg or vehicle (18% Cremophor RH40 and 10% DMSO in 5% dextrose solution (D5WW)) on Day 1, 2, and 3 after MCAO. Day 0 is the day of the MCAO, and the days after the MCAO are numbered consecutively (Day 1, Day 2, Day 3, etc.) D-pre represents the day prior to the MCAO.
Typically, after an initial rapid rise, there is a continued slow, steady, and partial improvement in sensorimotor function (as measured by forelimb and hindlimb placing and body swing tests) during the first three weeks after stroke. […] The normal rise in body weight following surgery was not affected by treatment with Compound 2.

Chain of FGFR1 (P11362 142-365 limits assumed): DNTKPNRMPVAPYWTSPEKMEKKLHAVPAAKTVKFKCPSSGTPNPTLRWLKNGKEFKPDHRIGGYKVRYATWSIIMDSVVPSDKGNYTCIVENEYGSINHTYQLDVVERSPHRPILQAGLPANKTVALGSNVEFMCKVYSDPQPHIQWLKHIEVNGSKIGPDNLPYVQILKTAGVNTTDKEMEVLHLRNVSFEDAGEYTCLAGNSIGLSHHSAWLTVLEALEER
Chain of FGFR1 (P09038 156-288 partner limits assumed): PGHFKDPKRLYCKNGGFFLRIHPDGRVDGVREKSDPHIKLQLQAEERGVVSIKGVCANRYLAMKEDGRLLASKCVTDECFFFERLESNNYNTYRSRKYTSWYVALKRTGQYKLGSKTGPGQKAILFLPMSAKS
T1 sequence (P09038 156-288 limits assumed): as the sequence (P09038 156-288 partner limits assumed) above
T1 sequence (P11362 142-365 partner limits assumed): as the sequence (P11362 142-365 limits assumed) above

Q: What does the source list for `CCN(CC)c1ccc2c(c1)CCN(C1CCN(C(c3ccccc3)c3ccccc3)CC1)C2` [Compound 2, 2-(1-benzhydrylpiperidin-4-yl)-N,N-diethyl-1,2,3,4-tetrahydroisoquinolin-6-amine]?
A: ΔTm at 2 µM (FGF2; 2 μM compound): -2.5 °C; ΔTm at 10 µM (FGF2; 10 μM compound): -3 °C; ΔTm at 2 µM (FGFR1; 2 μM compound, FGF2/FGFR1 complex): 4 °C; ΔTm at 10 µM (FGFR1; 10 μM compound, FGF2/FGFR1 complex): 4.5 °C; shift of the melting curve of the FGF-2/FGFR1 complex (TSA) (FGFR1; 10 μM, purified FGF-2/FGFR1 complex, FIG. 1): increased stability of the complex; rise in body weight following surgery [1]: not affected
